Structures are written as SMILES. The source made the active and inactive calls. The rule behind the calls is not given here.

For assay [1], the target named is T1, Polyunsaturated fatty acid 5-lipoxygenase (Homo sapiens, UniProt P09917).
T1 sequence (P09917 whole entry): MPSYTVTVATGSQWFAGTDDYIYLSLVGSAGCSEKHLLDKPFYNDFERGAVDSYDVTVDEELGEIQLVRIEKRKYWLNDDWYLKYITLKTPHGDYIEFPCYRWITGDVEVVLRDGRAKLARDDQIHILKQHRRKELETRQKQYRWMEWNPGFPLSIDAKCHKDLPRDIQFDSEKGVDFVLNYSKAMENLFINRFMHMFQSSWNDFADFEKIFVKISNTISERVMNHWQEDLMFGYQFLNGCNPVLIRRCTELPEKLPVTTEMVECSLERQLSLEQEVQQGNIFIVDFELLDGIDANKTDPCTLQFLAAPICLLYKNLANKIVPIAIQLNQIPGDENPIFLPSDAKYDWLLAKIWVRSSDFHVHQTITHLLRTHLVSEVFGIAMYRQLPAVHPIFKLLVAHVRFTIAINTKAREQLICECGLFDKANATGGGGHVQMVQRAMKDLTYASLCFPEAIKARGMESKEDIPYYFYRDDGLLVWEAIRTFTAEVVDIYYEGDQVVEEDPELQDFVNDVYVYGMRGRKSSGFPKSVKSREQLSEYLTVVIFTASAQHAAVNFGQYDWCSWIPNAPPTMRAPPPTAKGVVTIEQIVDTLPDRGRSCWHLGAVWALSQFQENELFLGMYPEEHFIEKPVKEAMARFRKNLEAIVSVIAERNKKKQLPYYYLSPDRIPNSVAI
Briefly: Inhibition of [14C]arachidonic acid conversion to 5-HETE by broken cell 5-LO isolated from guinea pig PMN; not active at the highest concentration (3 ug/mL) tested; No activity. Type of assay: functional, Cavia porcellus. As to conditions: target entry is the homologue from another species.

The species entered for another assay is Oryctolagus cuniculus. Briefly: The ability to inhibit iron-dependent lipid peroxidation of rabbit brain homogenate; not active at the highest concentration (30 ug/mL) tested; No activity. The format is functional.

Take `CC1=NN(CCOc2ccc3ccccc3c2)C(=O)C1(C)C`: the IC50 result in assay [1] is recorded as “Not Active”. Further, in the assay listed under Oryctolagus cuniculus, the MIC entry was “inactive”.

The values are drawn from ChEMBL document CHEMBL1126332 (Bioorg Med Chem Lett, 1992).
